This is an account of results in a melting point compilation (Tetko et al.; mined from patent text by program, amines drawn as free bases though some values may be those of a salt).

The structures appear in SMILES notation. Where only a bound is given, the exact number is not on record here.

The term melting point denotes the temperature of the solid-liquid transition. For `CN(C)Cc1nc(C(=O)N(C)C)nn1-c1ccc(Cl)cc1C(=O)c1ccccc1F`, the melting point is 140 to 142 °C. To `NS(=O)(=O)CCCOc1ccc2ncnn2n1` belongs 145 to 147 °C; to `N=C(N)Nc1nc2cc(Cl)c(Cl)cc2[nH]1`, over 260 °C. To `OCc1ccc(-c2ccc(OC(F)(F)F)cc2)nc1` belongs 57 to 58 °C; to `NS(=O)(=O)c1ccc(-c2ccco2)cc1`, 202 to 203 °C. To `COc1cc(Nc2c(C#N)cnc3cc(-c4ccc(C5OCCCO5)o4)ccc23)c(Cl)cc1Cl` belongs 224 to 229 °C; to `CCCC(=O)Cc1ccc(C(=O)Nc2ccc3cc(CN4CCCC4)cnc3c2C)cc1`, 139 to 140 °C; to `Cc1cccnc1C1CC(C)(C)Oc2ccc([N+](=O)[O-])cc21` (stereo not drawn), 164 to 165 °C. The molecule `CCN1c2ncc(CCc3ccncc3)cc2C(=O)N(C)c2ccc(N)nc21` showed a melting point of 94 to 97 °C.

As to `CCCC[Si](C)(C)CCCSCCCNC(=O)n1cc(F)c(=O)[nH]c1=O`, the melting point fell in the range of 71 to 72 °C.

As to `Cc1c(Cc2ccccc2)c(=O)oc2cc(O)cc(O)c12`, the melting point is 258 to 260 °C.

Turning to `COc1ccc(C(=O)C2=C(O)C(=O)N(c3nnc(C)s3)C2c2ccc(OC(F)(F)F)cc2)cc1` (stereo not drawn), the melting point is 245 to 247 °C.

Regarding `Nc1nc(-c2ccc(CCCCN3CCN(c4ccccc4)CC3)s2)cs1`, the melting point was in the range of 165 to 167 °C. Take `CC(=O)NC[C@H]1CN(c2ccc(N3CCN(c4ccc(C=O)o4)CC3)c(F)c2)C(=O)O1`: the melting point worked out at 176 °C. Take `CC(C)c1ccc(-c2cn(-c3cccc(C(=O)O)c3)cn2)cc1`: the melting point is 248 to 250 °C. `COc1cc(COc2nn(Cc3cccnc3)cc2CO)ccc1OCc1nc(-c2ccco2)oc1C`: the melting point lay within 90 to 91 °C. `[N-]=[N+]=C(c1ccccc1)c1ccc(COCCNC(=O)Nc2ccccc2)cc1` registered a melting point of 111 to 115 °C. Take `COC(=O)c1ccccc1SCOc1ccc(Cl)cc1Cl`: the melting point fell in the range of 122 to 124 °C. `CCCCCCCCCCCCCCCCSCC(C)(CO)C(=O)OC` (stereo not drawn) gave a melting point of 25 to 27 °C. To `CCCCCCCCCCCC(=O)N[C@@H](C)C(=O)N[C@H](CCC(=O)OCc1ccccc1)C(N)=O` belongs 169 °C.

On to `Cn1c(=S)c(C(=O)C2=C(O)CCCC2=O)nc2ccccc21`, for which the melting point was over 300 °C. In turn, `CCCCCCNC(=O)CS(=O)(=O)Nc1c(C(C)C)cccc1C(C)C` gave a melting point of 125 to 127 °C. The molecule `O=[N+]([O-])c1cc(F)ccc1S(=O)(=O)c1ccccc1` came in with a melting point of 127 to 129 °C. To `O=C(O)CN1CCC(n2nc(-c3c(-c4ccccc4)nn4ccccc34)ccc2=O)C1=O` (stereo not drawn) belongs 250 to 251 °C; to `COCCOc1cc(N)c(S(C)(=O)=O)cc1[N+](=O)[O-]`, 166 to 167 °C. The same measure for `O=C(NC1CCCCC1)N(CCCN1CCC(Cc2ccccc2)CC1)c1ccccc1`: 106 to 108 °C; for `Cc1cc(C#N)ccc1N1CCN(C(=O)OC(C)(C)C)CC1`: 127 to 131 °C. As for `Cc1ccsc1-c1ccc(C2(C)NC(=O)NC2=O)cc1` (stereo not drawn), the melting point was in the range of 201 to 202 °C. For `Cc1cc(-c2oncc2CCC(=O)O)ccc1Cl`, the melting point fell in the range of 158 to 159 °C. With `CCNC(=O)NCc1ccc(/C=C/C(c2cc(Cl)c(Cl)c(Cl)c2)C(F)(F)F)c2ccccc12` (stereo not drawn), the melting point lay in the range of 84 to 87 °C. As to `Nc1ccccc1C(=O)COC(=O)c1ccccc1`, the melting point was 125 °C.

Consider `COCCCn1nnnc1-c1cc(-c2cc(C(C)C)ccc2OC)c(O)cc1O`, for which the melting point was in the range of 174 to 176 °C. To `CCn1ncc2c1ncc1c(N3CCCCC3)nc3cc(C)nn3c12` belongs 176 to 177 °C; to `Nc1noc2cccc(OCCBr)c12`, 105 to 107 °C; to `CC(C)(C)OC(=O)NCCCn1ncc2cc(Br)ccc2c1=O`, 130 to 132 °C. Consider `O=C(O)c1ccc(-c2ccc3c(c2)CCN(CCN2CCCC2)C3=O)cc1`, for which the melting point is 247 to 249 °C. `CC(C)(C)OC(=O)NCCN(CCC12CC3CC(CC(C3)C1)C2)C(=O)NCCCc1ccncc1` displayed a melting point of 158 to 160 °C.

`COC(=O)CN(C=O)C1c2ccccc2CC1(C)C` (stereo not drawn) registered a melting point of 172 to 173 °C. The same measure for `CC(C)(C)c1cc(C(C)(C)C)n(Cc2ccc(COc3ccc(CCC(=O)O)c(F)c3)cc2)n1`: 152 to 153 °C. Molecule `O=C(NC(Cc1ccc(OCc2ccccc2)cc1)C(=O)O)c1ccc2nc(-c3ccc(Cl)cc3)cn2c1` (stereo not drawn) returned a melting point of 278 to 280 °C. To `COc1ccc2c(cc3n2CCc2ccccc2-3)n1` belongs 179 to 180 °C; to `O=C(NC1CCCCC1)c1c(O)c2cc(F)ccc2n(Cc2ccc(F)cc2)c1=O`, 118 °C; to `CCOC(=O)COc1cc(C)c(C)c2c1CC(Br)C2=O` (stereo not drawn), 71 to 73 °C.

For `COCCOc1cc(C(F)(F)F)cc(Oc2ccc(CCNc3ncnc4nccnc34)cc2)n1`, the melting point lay within 101 to 104 °C. `O=C(O)CC1CCCC2CC(=O)NC12` (stereo not drawn) displayed a melting point of 238 to 240 °C. The same measure for `OC1(c2cccn2Cc2ccccc2F)CCN(Cc2ccccc2)CC1`: 112 to 117 °C.

`CCCn1cc2c(C3C(=O)Nc4ccc(C#N)cc43)nc(NCCc3ccccn3)nc2n1` (stereo not drawn): the melting point is over 300 °C. The same measure for `O=C(Nc1ccc(-n2nc(C(F)(F)F)cc2C(F)(F)F)cc1)C1=CCCCC1`: 146 to 148 °C; for `CCOC(=O)c1ccc(CCCCN2C(=O)c3ccccc3C2=O)cc1`: 85 to 86 °C. Consider `Cc1oc(-c2ccco2)nc1CCc1ccc(CCCCC2OC(=O)NC2=O)cc1` (stereo not drawn), for which the melting point lay in the range of 140 to 141 °C. To `CCOC(=O)COCc1nnc(S)n1C` belongs 86 to 88 °C; to `CCCOc1cc(C(=O)O)cc(N)c1-c1ccccc1`, 101 to 102 °C; to `O=C(c1ccccc1)c1cnc2c(n1)CCCC2`, 61.5 to 63.5 °C. The same measure for `CCOC(=O)c1nc(-c2c(Cl)cc(C(F)(F)F)cc2Cl)[nH]c1C#N`: 180 to 181 °C; for `O=C(NC1CCc2ccccc21)c1ccc2cnccc2n1` (stereo not drawn): 156 to 157 °C. The same measure for `O=C(Nc1ccccc1)c1ccc2c(c1)N(C1CC1)CNS2(=O)=O`: 232 to 234 °C; for `CS(=O)(=O)Nc1ccc(F)c(C(=O)CBr)c1`: 110 to 113 °C. `CC(C)c1csc(NC(=O)OC(C)(C)C)c1C(=O)O` yielded a melting point of 205 to 206 °C. To `CCN1CCCC(NC(=O)c2ccccc2Nc2ccnc3c(Cl)cccc23)C1` (stereo not drawn) belongs 173 to 175 °C. On to `Cc1nc2cccc(OCC(C)(C)C(=O)NCC3CCC3)c2c(N)c1C(=O)O`, for which the melting point is 170 to 172 °C. To `C=C1c2ccccc2CC12CCC(N1CCCCC1)CC2` (stereo not drawn) belongs 93 to 95 °C; to `COC(=O)C(C)(C)OCc1cc2nc(Cl)ccc2n1S(=O)(=O)c1ccc2c(c1)OCO2`, 131 °C. `Cc1nc(N)c2nc(C)n(CCOCCCc3cccnc3)c2c1C` yielded a melting point of 109 to 110 °C.
